Experimental data as given in patent publication US5349127A, “Expression of herbicide metabolizing cytochromes P450” (priority 1992, dated 1994).

Assays:
[1] = Incubation buffer without cells, time 0 (Examples 5-9, 11, 12); assay type: in vitro ADME; details: no cells; substrate 10006; 0 h
Protocol: (§1) A 100 ml culture of S. griseolus ATCC 11796 in sporulation broth and a 50 ml culture of S. lividans transformed with pCAO400 in YEME broth were prepared and incubated for 24 hours as described. At that time, the S. griseolus culture was split into two 50 ml aliquots into two separate flasks and 25 ml of fresh sporulation broth was added to each and 9 mg of […] was added to one of these cultures to induce cytochrome P450SU1 expression. Fresh YEME broth (25 ml) was added to the S. lividans culture. After an additional 6 hours growth at 30° C., the cells in each culture were harvested as described above, washed twice with MOPS (50 mM, pH 7.2) and recentrifuged. The cell pellets were resuspended in four cell volumes of MOPS (50 mM, pH 7.2) containing 0.2% glucose and about 100 μg/ml of 10004. These cell suspensions were incubated at 30° C. with shaking and aliqouts were taken at 2 and 5.5 hours. The supernatant of each aliquot was analyzed by HPLC and the concentrations of the sulfonylurea compound 10004 and its metabolite 10005 were determined.
(§2) S. lividans transformed respectively with pCAO200SU1-FeS-B#9, pCAO200SU#112and pCAO200 were cultured for 36 hours in 400 ml of YEME broth at 30° C. S. griseolus ATCC 11796 was similarly cultured in 400 ml of sporulation broth. Six hours before harvesting the cells, 150 ml of fresh YEME broth was added to the S. lividans cells, and the S. griseolus cells were split into two 200 ml cultures with 100 ml of fresh sporulation broth added to each. 10001 (36 mg) was added to one of the two S. griseolus cultures to induce cytochrome P450SU1. The cells were prepared as described above in Example 5 and the concentrations of the sulfonylurea compound 10006 and its metabolites 10007, 10008 or 10009 were determined.
S. lividans transformed with pCAO200SU2-FeS-A#11 and S. lividans transformed with pCAO200 were cultured for 36 hours in 400 ml of YEME broth at 30° C. S. griseolus PH2001 (mutant without SU1) was cultured in 400 ml of sporulation broth at 30° C. Nine hours before harvesting the cells, the S. griseolus PH2001 culture was divided into two 200 ml cultures. Both received 100 ml of fresh sporulation broth and one received 36 mg of 10001 to induce cytochrome P450SU2. The cells were prepared as described above in Example 6 and the concentrations of the sulfonylurea compound 10001 and its metabolites 10002 and 10003 were determined.

[2] = system: S. lividans pCAO200; experiment: Sulfonylurea metabolism by washed cell suspension (Examples 6-9); assay type: in vitro ADME, Streptomyces lividans; details: substrate 10006
[3] = system: S. lividans pCAO200SU1#12; experiment: as above; assay type: in vitro ADME, Streptomyces lividans; details: substrate 10006
[4] = system: S. griseolus ATCC 11796 induced with 10001; experiment: Sulfonylurea metabolism by washed cell suspension (Examples 5-9); assay type: in vitro ADME, Streptomyces griseolus; details: substrate 10006
Protocol: (§3) Herbicides and their metabolites are measured by HPLC as described by Romesser et al., BBRC 140: 650-659 (1986), herein incorporated by reference, except that 0.1% H3 PO4 is used in both solvents. Chromatographic identity and quantitation of the herbicides and their resulting metabolites is determined by comparing them chromatographically with authentic standard compounds. Identity of the resulting metabolites is also confirmed by UV spectroscopy.
as §1, §2

[5] = system: S. griseolus ATCC 11796 uninduced; experiment: as above; assay type: in vitro ADME, Streptomyces griseolus; details: substrate 10006
Protocol: as §3, §1, §2

[6] = system: S. lividans pCAO200SU1-FeS-B#9; experiment: Sulfonylurea metabolism by washed cell suspension (Examples 6-9); assay type: in vitro ADME, Streptomyces lividans
[7] = system: S. lividans pCAO200; experiment: as above; assay type: in vitro ADME, Streptomyces lividans; details: substrate 10004
[8] = system: S. lividans transformed with pCAO400; experiment: Sulfonylurea metabolism by washed cell suspension (Example 5); assay type: in vitro ADME, Streptomyces lividans; details: substrate 10004 about 100 μg/ml
Protocol: as §3, §1

[9] = system: S. lividans pCAO200SU1#12; experiment: Sulfonylurea metabolism by washed cell suspension (Examples 6-9); assay type: in vitro ADME, Streptomyces lividans; details: substrate 10004
[10] = molecular target: T1, purified cytochrome p450SU1 (Streptomyces griseolus, UniProt P18326); experiment: Rate of metabolism of 10015 to 10014 supported by FeS proteins (Example 27); assay type: biochemical; details: 0.2 mM 10015, 15 min
T1 construct: Purified, native cytochromes P450SU1 and P450SU2; endogenous in cells; host or cells: sulfonylurea-induced Streptomyces griseolus cells
T1 sequence (P18326 whole entry, looked up): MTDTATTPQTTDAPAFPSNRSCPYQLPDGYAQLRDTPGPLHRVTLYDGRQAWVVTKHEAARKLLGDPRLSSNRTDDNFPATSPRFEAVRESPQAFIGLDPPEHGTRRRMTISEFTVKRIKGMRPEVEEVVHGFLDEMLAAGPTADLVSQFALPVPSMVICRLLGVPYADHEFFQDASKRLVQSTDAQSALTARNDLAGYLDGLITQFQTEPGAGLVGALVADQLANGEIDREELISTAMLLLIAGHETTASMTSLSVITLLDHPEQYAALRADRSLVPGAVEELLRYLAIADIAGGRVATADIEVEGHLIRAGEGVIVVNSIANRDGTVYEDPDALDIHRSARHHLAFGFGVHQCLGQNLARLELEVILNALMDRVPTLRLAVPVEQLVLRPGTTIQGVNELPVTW
Protocol: The purpose of this example was to define the combination of cytochrome p450SU1 and other proteins which results in optimal metabolism of sulfonylureas, based on conclusions from in vitro experiments. In these experiments, the rate of metabolism of 10015 to 10014, mediated by purified cytochrome p450SU1, was tested to find which FeS protein functions as the best direct electron donor.
The reaction was initiated by-the addition of NADPH to a final concentration of 0.03 mM. After 15 min the reaction was terminated by the addition of 0.25 ml H2 O:acetonitrile:H3 PO4^- (80:19:1). After filtering this mixture through a 0.2 μm filter, the amount of metabolite (10014) formed was analyzed by HPLC.

[11] = system: S. griseolus ATCC11796; experiment: Percent conversion of non-sulfonylurea herbicides (Example 29); assay type: in vitro ADME, Streptomyces griseolus; details: 3.0 mg herbicide in 25 ml broth; 18 hours
Protocol: (§4) This experiment was performed as in Example 17 with the following changes. Separate cultures (50 ml) inoculated with S. lividans C37, S. lividans transformed with pCAO200SU1-FeS-B#9, or S. griseolus ATCC11796 were cultured in sporulation broth for 18 hours at 30° C. with shaking. Each culture was then resuspended in 25 ml fresh sporulation broth and 3.0 mg herbicide added. Each culture was reincubated for 18 hours, then an aliquot of the medium was withdrawn and analyzed by HPLC. The percent conversion of herbicide was determined.

[12] = system: S. lividans pCAO200SU1-FeS-B#9; experiment: as above; assay type: in vitro ADME, Streptomyces lividans
Protocol: as §4

[13] = system: S. lividans C37; experiment: as above; assay type: in vitro ADME, Streptomyces lividans; details: 3.0 mg herbicide in 25 ml broth; 18 hours
Protocol: as §4

[14] = system: S. lividans pCAO200SU1-FeS-B#9; experiment: Percent conversion of herbicides by cultures (Example 16); assay type: in vitro ADME, Streptomyces lividans; details: for Percent Conversion: 3.0 mg herbicide in 25 ml broth, 24 hours; for metabolism by bacteria containing constitutively expressed P450SU1: summary of Table 13
Protocol: (§5) Separate cultures (50 ml) inoculated with S. lividans C37, S. lividans transformed with pCAO200SU1-FeS-B#9, S. griseolus ATCC11796, S. griseolus PH2003 transformed with pIJ425, or S. ariseolus PH2003 transformed with pCS325 were cultured in sporulation broth for 18 hours at 30° C. with shaking. Each culture was then resuspended in 25 ml fresh sporulation broth and 3.0 mg herbicide added. In the case of cultures of S. griseolus ATCC11796, a second culture containing herbicide and 3.0 mg 10001 was also prepared. Each culture was reincubated for 24 hours, then an aliquot of the medium was withdrawn and analyzed by HPLC. The percent conversion of herbicide was determined.

[15] = system: S. lividans C37; experiment: as above; assay type: in vitro ADME, Streptomyces lividans; details: 3.0 mg herbicide in 25 ml broth; 24 hours
Protocol: as §5

[16] = system: S. griseolus ATCC 11796; experiment: as above; assay type: in vitro ADME, Streptomyces griseolus; details: 3.0 mg herbicide in 25 ml broth; 24 hours
Protocol: as §5

[17] = system: S. griseolus PH2003 pCS325; experiment: as above; assay type: in vitro ADME, Streptomyces griseolus; details: for Percent Conversion: 3.0 mg herbicide in 25 ml broth, 24 hours
Protocol: as §5

[18] = system: S. griseolus ATCC 11796, 10001 added; experiment: as above; assay type: in vitro ADME, Streptomyces griseolus; details: 3.0 mg herbicide and 3.0 mg 10001 in 25 ml broth; 24 hours
Protocol: as §5

[19] = system: S. griseolus PH2003 pIJ425; experiment: as above; assay type: in vitro ADME, Streptomyces griseolus; details: 3.0 mg herbicide in 25 ml broth; 24 hours
Protocol: as §5

COC(=O)c1ccccc1S(=O)(=O)NC(=O)Nc1nc(C)nc(OC)n1 [compound 10006, N-[(4-methoxy-6-methyl-1,3,5-triazinyl)aminocarbonyl]-2-methoxycarbonylbenzenesulfonamide]
concentration in supernatant [1]: 362 µM
concentration in supernatant ([2]; 2 h): 381 µM
concentration in supernatant ([2]; 4 h): 377 µM
concentration in supernatant ([2]; 6 h): 375 µM
concentration in supernatant ([3]; 2 h): 376 µM
concentration in supernatant ([3]; 4 h): 384 µM
concentration in supernatant ([3]; 6 h): 386 µM
concentration in supernatant ([4]; 2 h): 369 µM
concentration in supernatant ([4]; 4 h): 357 µM
concentration in supernatant ([4]; 6 h): 355 µM
concentration in supernatant ([5]; 2 h): 404 µM
concentration in supernatant ([5]; 4 h): 394 µM
concentration in supernatant ([5]; 6 h): 405 µM
concentration in supernatant ([6]; substrate 10006, 2 h): 326 µM
concentration in supernatant ([6]; substrate 10006, 4 h): 267 µM
concentration in supernatant ([6]; substrate 10006, 6 h): 232 µM

CCCCN1Cc2cccc(S(=O)(=O)NC(=O)Nc3nc(OC)cc(OC)n3)c2S1(=O)=O [compound 10004]
concentration in supernatant ([7]; 2 h): 97 µM
concentration in supernatant ([7]; 4 h): 92 µM
concentration in supernatant ([7]; 6 h): 85 µM
concentration in supernatant ([8]; 2 h): 72 µM
concentration in supernatant ([8]; 5.5 h): 0 µM
concentration in supernatant ([9]; 2 h): 81 µM
concentration in supernatant ([9]; 4 h): 29 µM
concentration in supernatant ([9]; 6 h): 0 µM
concentration in supernatant ([6]; substrate 10004, 2 h): 2 µM
concentration in supernatant ([6]; substrate 10004, 4 h): 1 µM
concentration in supernatant ([6]; substrate 10004, 6 h): 2 µM

spinach Fd: spinach ferredoxin (an FeS protein)
Rate of 10015 metabolism to 10014 [10]: 0.4 (nmol 10014)·(nmol p450)-1·(mi
Rate of 10015 metabolism to 10014 ([10]; 4 mM FeS addition, FNR 0.2 mM): 0.2 (nmol 10014)·(nmol p450)-1·(mi
Rate of 10015 metabolism to 10014 ([10]; 4 mM FeS addition, FNR 2.0 mM): 0.2 (nmol 10014)·(nmol p450)-1·(mi

COc1cc(OC)nc(NC(=O)NS(=O)(=O)c2cccc3c2S(=O)(=O)N(CCC(C)O)C3)n1 (stereo not shown) [compound 10005, 2-(3-hydroxybutyl)-2,3-dihydro-N-[(4,6-dimethoxypyrimidin-2-yl)aminocarbonyl]1,2-benzisothiazole-7-sulfonamide-1,1-dioxide]
concentration in supernatant ([7]; 2 h): 22 µM
concentration in supernatant ([7]; 4 h): 26 µM
concentration in supernatant ([7]; 6 h): 30 µM
concentration in supernatant ([8]; 2 h): 67 µM
concentration in supernatant ([8]; 5.5 h): 125 µM
concentration in supernatant ([9]; 2 h): 43 µM
concentration in supernatant ([9]; 4 h): 84 µM
concentration in supernatant ([9]; 6 h): 109 µM
concentration in supernatant ([6]; substrate 10004, 2 h): 35 µM
concentration in supernatant ([6]; substrate 10004, 4 h): 100 µM
concentration in supernatant ([6]; substrate 10004, 6 h): 100 µM

CC(C)C1(C)N=C(c2nc3ccccc3cc2C(=O)O)NC1=O (stereo not shown) [compound 10035, 2-[4,5-dihydro-4-methyl-4-(1-methylethyl)-5-oxo-1H-imidazol-2-yl]-3-quinolinecarboxylic acid]
Percent Conversion [11]: 21%
Percent Conversion ([12]; 3.0 mg herbicide in 25 ml broth, 18 hours): 96%
metabolism by bacteria containing constitutively expressed P450SU1 ([12]; summary of Table 29): metabolized
Percent Conversion [13]: 22%

CN(C)c1nc(=O)n(C2CCCCC2)c(=O)n1C [compound 10017, 3-cyclohexyl-1-methyl-6-dimethylamino-S-triazine-2,4(1H,3H)dione]
Percent Conversion [14]: 47%
metabolism by bacteria containing constitutively expressed P450SU1 [14]: metabolized
Percent Conversion [15]: 19%
Percent Conversion [16]: 1%
Percent Conversion [17]: 98%
metabolism by bacteria containing constitutively expressed P450SU2 ([17]; summary of Table 13): metabolized
Percent Conversion [18]: 35%
Percent Conversion [19]: 6%

Cc1ccc(NC(=O)N(C)C)cc1Cl [compound 10019, 3-(3-chloro-p-tolyl)-1,1-dimethylurea]
Percent Conversion [14]: 35%
metabolism by bacteria containing constitutively expressed P450SU1 [14]: metabolized
Percent Conversion [15]: 0%
Percent Conversion [16]: 0%
Percent Conversion [17]: 9%
Percent Conversion [18]: 80%
Percent Conversion [19]: 0%

N#Cc1cc(Br)c(O)c(Br)c1 [compound 10023, 3,5-dibromo-4-hydroxybenzonitrile]
Percent Conversion [14]: 0%
Percent Conversion [15]: 0%
Percent Conversion [16]: 0%
Percent Conversion [18]: 0%
